Data on twelve compounds can be found in ChEMBL document CHEMBL1201862, “PubChem BioAssay data set” (2004).

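Tested at 5 concentrations; 48 h exposure; 96-well plates; endpoints linearly interpolated, else capped at highest concentration. GI50: concentration for 50% inhibition of growth.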 Calls of active or inactive are those of the source. No stated cut-off is given here; in the data, active = GI50 up to about 1.1 µM and inactive = higher.

Among the test systems are A498; ACHN; EKVX; HCC 2998; HCT-15; HT-29; Hs-578T; IGROV-1; MDA-MB-231; NCI-H23; NCI/ADR-RES; OVCAR-5; SK-MEL-5; SNB-19; T47D; U-251; RPMI-8226.
What all share (assay): DTP human tumour cell line panel, 48 h

Broadly, the GI50 is the concentration at which growth is held to half of that of the control. In the case of `COc1cc(S(=O)(=O)Nc2nc(-c3ccc(/N=C/c4cccs4)cc3)cs2)ccc1Cl`, the GI50 with A498 is > 100 µM (inactive); in the assay with ACHN, > 100 µM (inactive); in the assay with EKVX, > 100 µM (inactive); in the assay on HCC 2998, > 100 µM (inactive); in the assay on HCT-15, 36.1 µM; in the assay with HT-29, > 100 µM (inactive). In addition, the GI50 in the assay with Hs-578T is > 100 µM (inactive); in the assay with IGROV-1, 33.7 µM (inactive); with MDA-MB-231 it was 95.1 µM (inactive); in the assay with NCI-H23, 47.1 µM (inactive); in the assay on NCI/ADR-RES, > 100 µM (inactive); in the assay with OVCAR-5 it was > 100 µM (inactive). In addition, the GI50 with SK-MEL-5 is > 100 µM (inactive); in the assay with SNB-19, > 100 µM (inactive); in the assay on T47D, 84.3 µM (inactive); with U-251, 81.1 µM (inactive).

`O=S(=O)(NC(c1ccccc1)(c1cc2ccccc2[nH]1)c1cc2ccccc2n1S(=O)(=O)c1ccccc1)c1ccccc1` (centres undefined): the GI50 with A498 was > 100 µM (inactive); in the assay on EKVX, > 100 µM (inactive); with HCC 2998, > 100 µM (inactive); in the assay on HCT-15, greater than 100 µM; in the assay with HT-29, > 100 µM (inactive); in the assay with Hs-578T, > 100 µM (inactive). The GI50 in the assay with IGROV-1 was > 100 µM (inactive); with MDA-MB-231 it was > 100 µM (inactive); in the assay on NCI-H23, > 100 µM (inactive); in the assay on NCI/ADR-RES, > 100 µM (inactive); in the assay on OVCAR-5 it was > 100 µM (inactive); in the assay on RPMI-8226, 52.1 µM (inactive). Moreover, the GI50 in the assay on SK-MEL-5, in the assay with SNB-19, with T47D and in the assay on U-251 was > 100 µM (inactive) each time.

As to `O=C(c1ccc(Cl)c(Cl)c1)N(C(=O)N1CCN(c2ccccc2)CC1)S(=O)(=O)c1ccccc1`, the GI50 with A498 is > 100 µM (inactive); with ACHN it was 97.1 µM (inactive); in the assay with EKVX, > 100 µM (inactive); with HCC 2998, > 100 µM (inactive); in the assay with HCT-15, 24.5 µM; with HT-29, 46.7 µM (inactive). Further, the GI50 in the assay on Hs-578T was 57 µM (inactive); with MDA-MB-231, 35.6 µM (inactive); with NCI-H23 it was 37.5 µM (inactive); in the assay with NCI/ADR-RES, 34 µM (inactive); with OVCAR-5 it was 26.9 µM (inactive); with RPMI-8226, 32.6 µM (inactive). In addition, the GI50 was 28.2 µM (inactive) with SK-MEL-5, 36.6 µM (inactive) with SNB-19, > 100 µM (inactive) with T47D and 25.5 µM (inactive) in the assay with U-251.

For `CCOC(=O)c1c(NC(=O)c2ccccc2)c(C#N)c2n1CCCCC2`, the GI50 in the assay on ACHN is > 100 µM (inactive); in the assay with EKVX, > 100 µM (inactive); in the assay with HCC 2998, > 100 µM (inactive); in the assay on HCT-15, greater than 100 µM; in the assay with HT-29, > 100 µM (inactive); in the assay with Hs-578T, > 100 µM (inactive). In addition, the GI50 with IGROV-1, with MDA-MB-231, in the assay with NCI-H23, with NCI/ADR-RES, with OVCAR-5 and in the assay with RPMI-8226 was > 100 µM (inactive) in each case. In addition, the GI50 with SK-MEL-5, in the assay on SNB-19, with T47D and with U-251 was > 100 µM (inactive) each time.

Turning to `CN1CCN(c2ccc3nc(C4=C(O)C(=O)c5c(nc(CO)n5C)C4=O)[nH]c3n2)CC1`, the GI50 with ACHN is > 100 µM (inactive); in the assay on EKVX it was > 100 µM (inactive); in the assay with HCC 2998 it was > 100 µM (inactive); in the assay with HCT-15, greater than 100 µM; in the assay on HT-29, > 100 µM (inactive); in the assay on Hs-578T, > 100 µM (inactive). The GI50 is > 100 µM (inactive) in the assay on IGROV-1; > 100 µM (inactive) with MDA-MB-231; > 100 µM (inactive) in the assay with NCI-H23; > 100 µM (inactive) in the assay on NCI/ADR-RES; > 100 µM (inactive) in the assay with OVCAR-5; 93.8 µM (inactive) in the assay with RPMI-8226. Further, the GI50 was > 100 µM (inactive) with SNB-19, 61.4 µM (inactive) in the assay with T47D and 76.2 µM (inactive) in the assay on U-251.

Consider `Cc1ccc(/N=N/c2c(O)ccc3cc(S(=O)(=O)O)cc(S(=O)(=O)O)c23)cc1`, for which the GI50 in the assay on A498 was > 100 µM (inactive); in the assay with ACHN, > 100 µM (inactive); in the assay with EKVX it was > 100 µM (inactive); with HCC 2998 it was > 100 µM (inactive); in the assay on HCT-15, greater than 100 µM; in the assay on Hs-578T, > 100 µM (inactive). Further, the GI50 in the assay with IGROV-1 was > 100 µM (inactive); in the assay on MDA-MB-231, > 100 µM (inactive); with NCI-H23, > 100 µM (inactive); in the assay with NCI/ADR-RES, > 100 µM (inactive); with OVCAR-5 it was > 100 µM (inactive); in the assay on RPMI-8226, < 0.01 µM (active). Besides, the GI50 in the assay on SK-MEL-5, in the assay with SNB-19, in the assay with T47D and in the assay with U-251 was > 100 µM (inactive) each time.

Consider `CCOC1=NC(C(F)(F)F)(C(F)(F)F)N=C(N2CCCCC2)O1`, for which the GI50 was > 100 µM (inactive) with A498; > 100 µM (inactive) in the assay on ACHN; > 100 µM (inactive) in the assay with EKVX; greater than 100 µM with HCT-15; > 100 µM (inactive) with HT-29; > 100 µM (inactive) with Hs-578T. The GI50 in the assay with IGROV-1, with MDA-MB-231, with NCI-H23, with NCI/ADR-RES, in the assay with OVCAR-5 and with RPMI-8226 was > 100 µM (inactive) throughout. Besides, the GI50 with SK-MEL-5, in the assay with SNB-19, in the assay on T47D and in the assay on U-251 was > 100 µM (inactive) throughout.

On to `CCCCCCNC(=O)c1cc(NCc2cc(OC)ccc2OC)ccc1O`, for which the GI50 in the assay with ACHN is 32.8 µM (inactive); in the assay with EKVX, 23.9 µM (inactive); in the assay with HCC 2998, 26.6 µM (inactive); in the assay on HCT-15 it was 21.1 µM; in the assay on HT-29 it was 31.3 µM (inactive); in the assay on Hs-578T, 28 µM (inactive). Also, the GI50 was 21.3 µM (inactive) in the assay with IGROV-1; 18.7 µM (inactive) in the assay on MDA-MB-231; 24.7 µM (inactive) in the assay with NCI-H23; 16.9 µM (inactive) in the assay with NCI/ADR-RES; 51.4 µM (inactive) with OVCAR-5; 12.2 µM (inactive) with RPMI-8226. Also, the GI50 in the assay with SK-MEL-5 is 14.5 µM (inactive); in the assay on SNB-19 it was 33 µM (inactive); in the assay on T47D, 13.5 µM (inactive); in the assay with U-251, 17.9 µM (inactive).

As for `CCCSC1=N/C(=C\c2ccco2)C(=O)N1`, the GI50 in the assay with A498 was 89.7 µM (inactive); in the assay with ACHN, > 100 µM (inactive); in the assay on EKVX, 67.3 µM (inactive); in the assay on HCC 2998 it was > 100 µM (inactive); with HCT-15, greater than 100 µM; with HT-29, > 100 µM (inactive). Further, the GI50 in the assay on Hs-578T, in the assay on IGROV-1, with MDA-MB-231, in the assay on NCI-H23, in the assay on NCI/ADR-RES and in the assay with OVCAR-5 was > 100 µM (inactive) in each case. Moreover, the GI50 with RPMI-8226 was > 100 µM (inactive); in the assay on SNB-19, > 100 µM (inactive); with T47D it was 46.2 µM (inactive); in the assay on U-251, > 100 µM (inactive).

For the compound `C[C@@H]1S[C@H](c2c(F)cccc2Cl)n2c1nc1ccccc12`, the GI50 in the assay with ACHN is 27.9 µM (inactive); in the assay on EKVX, 22.1 µM (inactive); with HCC 2998, 13.6 µM (inactive); in the assay on HCT-15 it was 6.76 µM; with HT-29, 14.7 µM (inactive); with Hs-578T it was 20.6 µM (inactive). In addition, the GI50 in the assay with IGROV-1 is 17.2 µM (inactive); with MDA-MB-231 it was 11.5 µM (inactive); with NCI-H23, 14.5 µM (inactive); in the assay on NCI/ADR-RES, 14.1 µM (inactive); with OVCAR-5, 33.4 µM (inactive); in the assay on RPMI-8226 it was 4.44 µM (inactive). Besides, the GI50 with SNB-19 was 26.4 µM (inactive); in the assay with T47D, 22.5 µM (inactive); in the assay on U-251, 10.8 µM (inactive).

As to `COc1cc(C(c2cccc3ccccc23)N2C(=O)CCC2C(=O)NCc2ccccc2)cc(OC)c1OC` (centres undefined), the GI50 is > 100 µM (inactive) in the assay on A498; > 100 µM (inactive) in the assay on EKVX; > 100 µM (inactive) with HCC 2998; greater than 100 µM with HCT-15; > 100 µM (inactive) with HT-29; 83.6 µM (inactive) in the assay on Hs-578T. Also, the GI50 is > 100 µM (inactive) with IGROV-1; > 100 µM (inactive) in the assay with MDA-MB-231; > 100 µM (inactive) in the assay with NCI-H23; > 100 µM (inactive) in the assay with NCI/ADR-RES; > 100 µM (inactive) in the assay on OVCAR-5; 55.3 µM (inactive) with RPMI-8226. The GI50 in the assay on SK-MEL-5, with SNB-19, with T47D and with U-251 was > 100 µM (inactive) throughout.

As for `O=c1c(C(c2ccc(O)cc2)c2c(O)oc3ccccc3c2=O)c(O)oc2ccccc12`, the GI50 was > 100 µM (inactive) in the assay with A498; > 100 µM (inactive) in the assay with ACHN; > 100 µM (inactive) in the assay with EKVX; 46.3 µM (inactive) in the assay with HCC 2998; 36.6 µM in the assay with HCT-15; 97.1 µM (inactive) with HT-29. Besides, the GI50 is > 100 µM (inactive) with Hs-578T; 66.2 µM (inactive) with IGROV-1; 31.6 µM (inactive) in the assay on MDA-MB-231; > 100 µM (inactive) with NCI-H23; > 100 µM (inactive) with NCI/ADR-RES; 83.8 µM (inactive) with SK-MEL-5. The GI50 in the assay with SNB-19 was 71.8 µM (inactive); in the assay with T47D, > 100 µM (inactive); in the assay on U-251 it was 34.9 µM (inactive).
